Assay results published in ChEMBL document CHEMBL3885881, “DrugMatrix”.
“And” between values parts separate entries of the source, which are not always exact repeats. Identical values can stand only once.

Species: Rattus norvegicus
Assay: DrugMatrix - Regimen: Daily Repeat
Format: toxicity, organism-based, Sprague-Dawley
Design: regimen Daily Repeat, gender Male, age 6-8 weeks
Settings: in vivo, po, route oral GAVAGE, vehicle .5 % CMC; for ABSOLUTE BASOPHIL / ABSOLUTE EOSINOPHIL / ABSOLUTE LYMPHOCYTE / ABSOLUTE MONOCYTE / BASOPHIL / EOSINOPHIL / ERYTHROCYTE COUNT / HEMATOCRIT / HEMOGLOBIN / LEUKOCYTE COUNT / LYMPHOCYTE / MEAN CORPUSCULAR HEMOGLOBIN / MEAN CORPUSCULAR HEMOGLOBIN CONCENTRATION / MEAN CORPUSCULAR VOLUME / MONOCYTE / NEUTROPHIL / PLATELET COUNT / ABSOLUTE SEGMENTED NEUTROPHIL / NUCLEATED RED BLOOD CELLS: tissue Blood; for ALANINE AMINOTRANSFERASE / ALBUMIN / ALKALINE PHOSPHATASE / ASPARTATE AMINOTRANSFERASE / BLOOD UREA NITROGEN / CARBON DIOXIDE / CHLORIDE / CHOLESTEROL / CREATINE PHOSPHOKINASE / CREATININE / GLUCOSE / LACTATE DEHYDROGENASE / LIPASE / PHOSPHORUS / POTASSIUM / SODIUM / TOTAL BILIRUBIN / TOTAL PROTEIN / URIC ACID: tissue Plasma
[1] = 10 mg/kg, […], dose level Low, time 14 day
[2] = 100 mg/kg, 72 h, dose level High, time 3 day
[3] = 100 mg/kg, 120 h, dose level High, time 5 day
[4] = 100 mg/kg, […], dose level High, time 14 day

CN(C)CCN(Cc1cccs1)c1ccccn1
ABSOLUTE BASOPHIL [1]: 83.3 cells/µL
ABSOLUTE EOSINOPHIL [1]: 66.7 cells/µL
ABSOLUTE LYMPHOCYTE [1]: 10000 cells/µL
ABSOLUTE MONOCYTE [1]: 240 cells/µL
BASOPHIL [1]: 0.53%
EOSINOPHIL [1]: 0.52%
ERYTHROCYTE COUNT [1]: 7.47 x10E6/uL
HEMATOCRIT [1]: 47.12%
HEMOGLOBIN [1]: 14.82 G/DL
LEUKOCYTE COUNT [1]: 12.98 x10E3/uL
LYMPHOCYTE [1]: 76.93%
MEAN CORPUSCULAR HEMOGLOBIN [1]: 19.85 pg
MEAN CORPUSCULAR HEMOGLOBIN CONCENTRATION [1]: 31.43 G/DL
MEAN CORPUSCULAR VOLUME [1]: 63.1 fL
MONOCYTE [1]: 1.83%
NEUTROPHIL [1]: 19.2%
PLATELET COUNT [1]: 1264.5 x10E3/uL
ALANINE AMINOTRANSFERASE [1]: 47.67 u/L
ALBUMIN [1]: 3.87 G/DL
ALKALINE PHOSPHATASE [1]: 477 u/L
ASPARTATE AMINOTRANSFERASE [1]: 81.33 u/L
BLOOD UREA NITROGEN [1]: 14.83 mg/dL
CARBON DIOXIDE [1]: 38.33 mmol/L
CHLORIDE [1]: 105.17 MEQ/L
CHOLESTEROL [1]: 68.67 mg/dL
CREATINE PHOSPHOKINASE [1]: 223.17 u/L
CREATININE [1]: 0.68 mg/dL
GLUCOSE [1]: 155.83 mg/dL
LACTATE DEHYDROGENASE [1]: 95.83 u/L
LIPASE [1]: 18.67 u/L
PHOSPHORUS [1]: 10.72 mg/dL
POTASSIUM [1]: 6.3 MEQ/L
SODIUM [1]: 151.83 MEQ/L
TOTAL BILIRUBIN [1]: 0.27 mg/dL
TOTAL PROTEIN [1]: 6.77 G/DL
URIC ACID [1]: 1.22 mg/dL
ABSOLUTE BASOPHIL [2]: 0 CELLS/uL
ABSOLUTE EOSINOPHIL [2]: 62.67 CELLS/uL
ABSOLUTE LYMPHOCYTE [2]: 11170 CELLS/uL
ABSOLUTE MONOCYTE [2]: 125.33 CELLS/uL
ABSOLUTE SEGMENTED NEUTROPHIL [2]: 1608.67 CELLS/uL
BASOPHIL [2]: 0%
EOSINOPHIL [2]: 0.33%
ERYTHROCYTE COUNT [2]: 5.22 x10E6/uL
HEMATOCRIT [2]: 32.67%
HEMOGLOBIN [2]: 12.17 G/DL
LEUKOCYTE COUNT [2]: 12.97 x10E3/uL
LYMPHOCYTE [2]: 81.67%
MEAN CORPUSCULAR HEMOGLOBIN [2]: 23.37 pg
MEAN CORPUSCULAR HEMOGLOBIN CONCENTRATION [2]: 37.27 G/DL
MEAN CORPUSCULAR VOLUME [2]: 62.6 fL
MONOCYTE [2]: 0.67%
NEUTROPHIL [2]: 17.33%
NUCLEATED RED BLOOD CELLS [2]: 0 /100WBC
PLATELET COUNT [2]: 1093.67 x10E3/uL
ALANINE AMINOTRANSFERASE [2]: 71.33 u/L
ALBUMIN [2]: 3.77 G/DL
ALKALINE PHOSPHATASE [2]: 555.67 u/L
ASPARTATE AMINOTRANSFERASE [2]: 110.67 u/L
BLOOD UREA NITROGEN [2]: 15.67 mg/dL
CARBON DIOXIDE [2]: 32.33 mmol/L
CHLORIDE [2]: 99.67 MEQ/L
CHOLESTEROL [2]: 134.33 mg/dL
CREATINE PHOSPHOKINASE [2]: 382 u/L
CREATININE [2]: 0.22 mg/dL
GLUCOSE [2]: 140 mg/dL
LACTATE DEHYDROGENASE [2]: 129.67 u/L
LIPASE [2]: 11.33 u/L
PHOSPHORUS [2]: 12.07 mg/dL
POTASSIUM [2]: 5.88 MEQ/L
SODIUM [2]: 143.37 MEQ/L
TOTAL BILIRUBIN [2]: 0.47 mg/dL
TOTAL PROTEIN [2]: 5.77 G/DL
URIC ACID [2]: 0.43 mg/dL
ABSOLUTE SEGMENTED NEUTROPHIL [3]: 1008.67 CELLS/uL
BASOPHIL [3]: 0.97% and 0%
EOSINOPHIL [3]: 0.55% and 0%
ERYTHROCYTE COUNT [3]: 7.33 x10E6/uL and 5.52 x10E6/uL
HEMATOCRIT [3]: 45.42% and 34.13%
HEMOGLOBIN [3]: 14.18 G/DL and 13.07 G/DL
LEUKOCYTE COUNT [3]: 20.78 x10E3/uL and 14.4 x10E3/uL
LYMPHOCYTE [3]: 80.47% and 90%
MEAN CORPUSCULAR HEMOGLOBIN [3]: 19.32 pg and 23.73 pg
MEAN CORPUSCULAR HEMOGLOBIN CONCENTRATION [3]: 31.2 G/DL and 38.33 G/DL
MEAN CORPUSCULAR VOLUME [3]: 61.95 fL and 61.97 fL
MONOCYTE [3]: 3.85% and 3%
NEUTROPHIL [3]: 12.68% and 7%
NUCLEATED RED BLOOD CELLS [3]: 0 /100WBC
PLATELET COUNT [3]: 1277.75 x10E3/uL and 1530.33 x10E3/uL
ALANINE AMINOTRANSFERASE [3]: 138.25 u/L and 130.33 u/L
ALBUMIN [3]: 3.45 G/DL and 4.23 G/DL
ALKALINE PHOSPHATASE [3]: 618 u/L and 531.33 u/L
ASPARTATE AMINOTRANSFERASE [3]: 321 u/L and 308.67 u/L
BLOOD UREA NITROGEN [3]: 15.75 mg/dL and 15.33 mg/dL
CARBON DIOXIDE [3]: 37 mmol/L and 36.67 mmol/L
CHLORIDE [3]: 104.75 MEQ/L and 97.67 MEQ/L
CHOLESTEROL [3]: 98.5 mg/dL and 113.67 mg/dL
CREATINE PHOSPHOKINASE [3]: 398.5 u/L and 603.33 u/L
CREATININE [3]: 0.5 mg/dL and 0.25 mg/dL
GLUCOSE [3]: 151.25 mg/dL and 120.33 mg/dL
LACTATE DEHYDROGENASE [3]: 162.5 u/L and 250.33 u/L
LIPASE [3]: 17 u/L and 9.67 u/L
PHOSPHORUS [3]: 11.03 mg/dL and 12.1 mg/dL
POTASSIUM [3]: 6.62 MEQ/L and 5.82 MEQ/L
SODIUM [3]: 151 MEQ/L and 142.77 MEQ/L
TOTAL BILIRUBIN [3]: 0.4 mg/dL and 0.37 mg/dL
TOTAL PROTEIN [3]: 5.72 G/DL and 6.2 G/DL
URIC ACID [3]: 1.07 mg/dL and 0.63 mg/dL
ABSOLUTE BASOPHIL [4]: 150 cells/µL
ABSOLUTE EOSINOPHIL [4]: 75 cells/µL
ABSOLUTE LYMPHOCYTE [4]: 12900 cells/µL
ABSOLUTE MONOCYTE [4]: 390 cells/µL
BASOPHIL [4]: 0.77%
EOSINOPHIL [4]: 0.5%
ERYTHROCYTE COUNT [4]: 8.39 x10E6/uL
HEMATOCRIT [4]: 49.5%
HEMOGLOBIN [4]: 15.85 G/DL
LEUKOCYTE COUNT [4]: 15.58 x10E3/uL
LYMPHOCYTE [4]: 82.28%
MEAN CORPUSCULAR HEMOGLOBIN [4]: 18.95 pg
MEAN CORPUSCULAR HEMOGLOBIN CONCENTRATION [4]: 32.1 G/DL
MEAN CORPUSCULAR VOLUME [4]: 59.02 fL
MONOCYTE [4]: 2.45%
NEUTROPHIL [4]: 12.85%
PLATELET COUNT [4]: 1440.5 x10E3/uL
ALANINE AMINOTRANSFERASE [4]: 70.83 u/L
ALBUMIN [4]: 3.47 G/DL
ALKALINE PHOSPHATASE [4]: 569.83 u/L
ASPARTATE AMINOTRANSFERASE [4]: 277.5 u/L
BLOOD UREA NITROGEN [4]: 17.17 mg/dL
CARBON DIOXIDE [4]: 33.83 mmol/L
CHLORIDE [4]: 106.33 MEQ/L
CHOLESTEROL [4]: 60.17 mg/dL
CREATINE PHOSPHOKINASE [4]: 264.5 u/L
CREATININE [4]: 0.7 mg/dL
GLUCOSE [4]: 134.5 mg/dL
LACTATE DEHYDROGENASE [4]: 165.67 u/L
LIPASE [4]: 22.2 u/L
PHOSPHORUS [4]: 11.25 mg/dL
POTASSIUM [4]: 6.93 MEQ/L
SODIUM [4]: 150.83 MEQ/L
TOTAL BILIRUBIN [4]: 0.65 mg/dL
TOTAL PROTEIN [4]: 5.93 G/DL
URIC ACID [4]: 1.82 mg/dL
